According to patent US10076520B2, “Use of tyrosine kinase inhibitor in cancer treatment” (THE REGENTS OF THE UNIVERSITY OF COLORADO, A BODY CORPORATE, priority 2013, dated 2018):

Assays:
[1] = tested on: PKCδ; assay: Immunoblot of PKCδ tyrosine phosphorylation in ParC5 cells treated with hydrogen peroxide; format: cell-based, rat; details: ParC5 cells pre-treated 30 mins prior to hydrogen peroxide
[2] = tested on: ParC5 cells; assay: Irradiation-induced apoptosis (caspase-3 activity) in ParC5 cells; format: cell-based, rat; details: parC5 cells pre-treated 30 mins prior to 10 Gy irradiation; harvested after 18 hrs; p<0.05
Experimental: Cells were harvested after an additional 18 hrs and casapase 3 activity were measured.

Cc1ccc(NC(=O)c2ccc(CN3CCN(C)CC3)cc2)cc1Nc1nccc(-c2cccnc2)n1 [imatinib]
phosphorylation of PKCδ at Y64, Y155 and Y311 [1]: inhibited phosphorylation of PKCδ at Y155 only | apoptosis (caspase 3 activity) [2]: significant protection from apoptosis
